tested on: E. coli TOP10; experiment: Suicide expression system (SES) growth inhibition; assay type: cell-based; conditions: Table 1; 0.1% inducer (arabinose), pBAD/gIIIA in E. coli TOP10, Bioscreen C 37° C., end point OD450 vs control vector

Substance	Growth inhibition (%)
5 (RRRPRPFPRPFPRPFPRPFPRPFPRPF; Synthetic antimicrobial peptide) [compound 5]	57
4 (RRRFPPRFPPRFPPRFPPRFPPRFPPR; Synthetic antimicrobial peptide) [compound 4]	46
3 (RRRRFPPRFPPRFPPRFPPRFPPRFPP; Synthetic antimicrobial peptide) [compound 3]	43

same assay, conditions: Table 2; variants of SEQ ID NO:1, re-tested in the Bioscreen C

Substance	Growth inhibition (%)
27 (RRRPPRLPPRLPPRLPPRVPPRVPLVSNCSRTKTHLRRGSE; Synthetic antimicrobial peptide) [compound 27]	90

same assay, conditions: Table 3; variants of SEQ ID NO:5, re-tested in the Bioscreen C

Substance	Growth inhibition (%)
58 (RRRPRPIPRPFPRPIPRPVPRPFPRPF; Synthetic antimicrobial peptide) [compound 58]	77
53 (RRRPRPFPRPVPRPIPRPFPRPVPRPV; Synthetic antimicrobial peptide) [compound 53]	62
59 (RRRPRPIPRPFPRPIPRPVPRPFPRPF; Synthetic antimicrobial peptide) [compound 59]	75
35 (RRRPRPFPRPFPRPFPRPFPRPIPRPF; Synthetic antimicrobial peptide) [compound 35]	78

same assay, conditions: Table 4; variants of SEQ ID NO:10, re-tested in the Bioscreen C

Substance	Growth inhibition (%)
92 (RRRPVRPPIRPPFRPPFRPPFRPPFRP; Synthetic antimicrobial peptide) [compound 92]	85
114 (RRRPLRPPLRPPFRPPLRPPFRPPFRP; Synthetic antimicrobial peptide) [compound 114]	74
199 (RRRPLRPPIRPPFRPPVRPPFRPPFRP; Synthetic antimicrobial peptide) [compound 199]	80
186 (RRRPIRPPIRPPIRPPFRPPFRPPFRP; Synthetic antimicrobial peptide) [compound 186]	77
87 (RRRPFRPPFRPPIRPPFRPPVRPPVRP; Synthetic antimicrobial peptide) [compound 87]	80
164 (RRRPFRPPIRPPLRPPFRPPFRPPFRP; Synthetic antimicrobial peptide) [compound 164]	78
148 (RRRPIRPPFRPPFRPPFRPPFRPPLRP; Synthetic antimicrobial peptide) [compound 148]	76
170 (RRRPIRPPFRPPFRPPFRPPVRPPFRP; Synthetic antimicrobial peptide) [compound 170]	80
76 (RRRPIRPPFRPPIRPPVRPPFRPPIRP; Synthetic antimicrobial peptide) [compound 76]	86
155 (RRRPFRPPFRPPFRPPFRPPFRPPLRP; Synthetic antimicrobial peptide) [compound 155]	83
75 (RRRPFRPPIRPPVRPPFRPPFRPPFRP; Synthetic antimicrobial peptide) [compound 75]	79
82 (RRRPIRPPFRPPVRPPFRPPFRPPFRP; Synthetic antimicrobial peptide) [compound 82]	71
179 (RRRPFRPPIRPPIRPPFRPPFRPPFRP; Synthetic antimicrobial peptide) [compound 179]	87
121 (RRRPIRPPLRPPVRPPIRPPFRPPFRP; Synthetic antimicrobial peptide) [compound 121]	65
70 (RRRPLRPPLRPPFRPPIRPPLRPPFRP; Synthetic antimicrobial peptide) [compound 70]	76
181 (RRRPIRPPIRPPFRPPFRPPFRPPFRP; Synthetic antimicrobial peptide) [compound 181]	83
201 (RRRPFRPPIRPPIRPPFRPPIRPPFRP; Synthetic antimicrobial peptide) [compound 201]	78
88 (RRRPFRPPLRPPLRPPVRPPVRPPFRP; Synthetic antimicrobial peptide) [compound 88]	82
100 (RRRPIRPPFRPPFRPPFRPPFRPPFRP; Synthetic antimicrobial peptide) [compound 100]	84
196 (RRRPFRPPLRPPIRPPIRPPFRPPFRP; Synthetic antimicrobial peptide) [compound 196]	77
159 (RRRPVRPPIRPPIRPPVRPPLRPPVRP; Synthetic antimicrobial peptide) [compound 159]	35

same assay, conditions: Table 5; mixed-motif library, re-tested in the Bioscreen C

Substance	Growth inhibition (%)
283 (RRRPPRLPRPLPVRPPPRFPRPVPFRP; Synthetic antimicrobial peptide) [compound 283]	95
287 (RRRPPRLPRPLPVRPPPRLPRPIPIRP; Synthetic antimicrobial peptide) [compound 287]	95
288 (RRRPPRLPRPLPVRPPPRVPRPFPLRP; Synthetic antimicrobial peptide) [compound 288]	96
263 (RRRPPRLPRPIPVRPPPRVPRPIPLRP; Synthetic antimicrobial peptide) [compound 263]	94
257 (RRRPPRLPRPIPVRPPPRFPRPIPFRP; Synthetic antimicrobial peptide) [compound 257]	92
269 (RRRPPRLPRPLPFRPPPRVPRPVPVRP; Synthetic antimicrobial peptide) [compound 269]	90
262 (RRRPPRLPRPIPVRPPPRLPRPVPLRP; Synthetic antimicrobial peptide) [compound 262]	93
256 (RRRPPRLPRPIPLRPPPRVPRPIPIRP; Synthetic antimicrobial peptide) [compound 256]	91
233 (RRRPPRLPRPFPLRPPPRLPRPLPVRP; Synthetic antimicrobial peptide) [compound 233]	91
296 (RRRPPRLPRPVPFRPPPRVPRPIPFRP; Synthetic antimicrobial peptide) [compound 296]	88
220 (RRRPPRLPRPFPIRPPPRFPRPFPVRP; Synthetic antimicrobial peptide) [compound 220]	90
284 (RRRPPRLPRPLPVRPPPRFPRPVPVRP; Synthetic antimicrobial peptide) [compound 284]	89
255 (RRRPPRLPRPIPIRPPPRFPRPVPFRP; Synthetic antimicrobial peptide) [compound 255]	93
302 (RRRPPRLPRPVPLRPPPRFPRPVPVRP; Synthetic antimicrobial peptide) [compound 302]	82
304 (RRRPPRLPRPVPVRPPPRFPRPVPIRP; Synthetic antimicrobial peptide) [compound 304]	90
228 (RRRPPRLPRPFPLRPPPRFPRPFPIRP; Synthetic antimicrobial peptide) [compound 228]	96
248 (RRRPPRLPRPFPVRPPPRVPRPVPIRP; Synthetic antimicrobial peptide) [compound 248]	94
235 (RRRPPRLPRPFPLRPPPRVPRPVPFRP; Synthetic antimicrobial peptide) [compound 235]	94

— patent publication US7833967B2, “Synthetic antimicrobial polypeptides” (priority 2003, dated 2010)
